# Test results published in patent publication US10203327B2, “Organic compounds” (Novartis AG, priority 2013, dated 2019).
# Where a SMILES comes first, the peptide text is derived from it.
# Key:
# human GPR15 [1] = molecular target: T1, human GPR15 (Homo sapiens, UniProt P49685); test: Aequorin assay on human GPR15 stably expressed in recombinant cells; format: cell-based
# T1 construct: expressed in transfected cells; host or cells: CHO-Aeq (with or without Galpha16), vector pEFIN3
# T1 sequence (P49685 1-360): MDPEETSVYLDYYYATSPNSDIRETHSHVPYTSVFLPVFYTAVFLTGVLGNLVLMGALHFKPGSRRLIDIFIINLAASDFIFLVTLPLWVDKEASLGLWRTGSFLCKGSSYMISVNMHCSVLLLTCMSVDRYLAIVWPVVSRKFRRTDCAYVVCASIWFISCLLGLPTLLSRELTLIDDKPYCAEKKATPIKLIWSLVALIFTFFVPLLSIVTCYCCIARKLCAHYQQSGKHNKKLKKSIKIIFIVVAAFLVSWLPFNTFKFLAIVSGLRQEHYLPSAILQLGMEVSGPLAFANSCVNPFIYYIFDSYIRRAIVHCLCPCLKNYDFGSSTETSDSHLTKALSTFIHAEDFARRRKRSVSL
# Description: (§1) Throughout this specification, the term “Aequorin assay” refers to methods for performing high throughput functional screening of GPCRs. Said methods employ recombinant cell lines stably transfected with plasmids encoding apoaequorin, a GPCR of interest and if necessary, a recombinant G protein to redirect the coupling of the GPCR toward calcium signaling. After clonal selection, the best clones are selected on the basis of pharmacological characterization, high signal to background ratio and stability of expression. This method has been developed by Euroscreen SA, 47 Rue Adrienne Bolland, 6041 Gosselies, Belgium.
# (§2) Plasmids encoding human and mouse GPR15 were stably transfected in CHO, 1321 N1 and HEK293 cells expressing the apoaequorin (CHO-Aeq, 1321-N1-Aeq and HEK-Aeq). GPR15 mRNA sequence integrities were checked using RT-PCR at T0 and T30 culture times in CHO cells.
# An hGPR15 CHO-Gα16Aeq cell line was used for the Aequorin screening of Euroscreen proprietary libraries of natural ligands and tissue extracts collection. Specific activation of GPR15 over more than 20 other orphan GPCRs was identified in fractions from a colon aqueous extract.
# (§3) QKPQLWVVPGALPQV peptide (SEQ ID NO: 2), corresponding to a putative tryptic C-term fragment (43-57) of the porcine peptide, was first synthesised for GPR15 evaluation.
# (§4) Both peptides (i.e., those produced via CHO production and in vitro production in the agglutinin wheat germ extract system) were tested for GPR15 activation using Aequorin dose response curves.
# human GPR23 = molecular target: T2, human GPR23 (Homo sapiens, UniProt Q99677); test: Aequorin assay on unrelated receptor hGPR23 (selectivity); format: cell-based; settings: CHO-Aeq cells expressing hGPR23
# T2 construct: expressed in transfected cells; host or cells: CHO-Aeq Galpha16
# Description: as §1, §3, §4
# human GPR15 [2] = molecular target: T1, human GPR15; test: cAMP HTRF assay on CHO and HEK cells stably expressing hGPR15; format: cell-based
# [3] = system: human neonatal dermal fibroblasts; test: IP-10 (CXCL10) release from human neonatal dermal fibroblasts; format: cell-based; settings: GPR15-independent
# Description: GPR15L action is also mediated by a GPR15-independent mechanism in human neonatal dermal fibroblasts. […] Interferon gamma-induced protein 10 (IP-10), also known as C—X—C motif chemokine 10 (CXCL10), is secreted by monocytes, endothelial cells, and fibroblasts in response to IFN-γ. CXCL10 binds to the cell surface chemokine receptor CXCR3 and is implicated in such processes as chemoattraction for monocytes/macrophages, T cells, NK cells, and dendritic cells, promotion of T cell adhesion to endothelial cells, antitumor activity, and inhibition of bone marrow colony formation and angiogenesis.
# SW48 cells [4] = test: Forskolin-induced cAMP in SW48 colon cancer cells; format: cell-based, human; settings: pertussis toxin sensitive
# human GPRC5C = molecular target: T3, human GPRC5C (Homo sapiens, UniProt Q9NQ84); test: Aequorin assay on unrelated receptor GPRC5C (selectivity); format: cell-based; settings: CHO-Aeq cells expressing GPRC5C
# T3 construct: expressed in transfected cells; host or cells: CHO-Aeq Galpha16
# SW48 cells [5] = test: Intracellular calcium in SW48 colon cancer cells; format: cell-based, human; settings: after priming
# mouse GPR15 = molecular target: T4, mouse GPR15 (Mus musculus, UniProt Q0VDU3); test: Aequorin assay on mouse GPR15 stably expressed in CHO-Aeq cells; format: cell-based; settings: CHO and IV produced polypeptide
# T4 construct: expressed in transfected cells; host or cells: CHO-Aeq (with or without Galpha16), vector pEFIN5
# T4 sequence (Q0VDU3 1-360): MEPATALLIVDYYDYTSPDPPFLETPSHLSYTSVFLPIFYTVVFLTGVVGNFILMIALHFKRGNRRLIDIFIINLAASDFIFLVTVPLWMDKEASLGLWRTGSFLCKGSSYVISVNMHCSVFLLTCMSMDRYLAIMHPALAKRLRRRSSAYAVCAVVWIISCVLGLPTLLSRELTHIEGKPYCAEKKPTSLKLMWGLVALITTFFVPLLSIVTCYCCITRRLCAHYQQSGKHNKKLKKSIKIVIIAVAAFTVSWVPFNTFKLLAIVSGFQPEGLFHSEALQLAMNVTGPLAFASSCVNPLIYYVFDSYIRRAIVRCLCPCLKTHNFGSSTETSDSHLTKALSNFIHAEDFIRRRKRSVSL
# Description: as §1, §2, §3
# [6] = system: subjects treated for psoriasis; settings: after 4 weeks; cited from earlier work
# T2 sequence (Q99677 whole entry): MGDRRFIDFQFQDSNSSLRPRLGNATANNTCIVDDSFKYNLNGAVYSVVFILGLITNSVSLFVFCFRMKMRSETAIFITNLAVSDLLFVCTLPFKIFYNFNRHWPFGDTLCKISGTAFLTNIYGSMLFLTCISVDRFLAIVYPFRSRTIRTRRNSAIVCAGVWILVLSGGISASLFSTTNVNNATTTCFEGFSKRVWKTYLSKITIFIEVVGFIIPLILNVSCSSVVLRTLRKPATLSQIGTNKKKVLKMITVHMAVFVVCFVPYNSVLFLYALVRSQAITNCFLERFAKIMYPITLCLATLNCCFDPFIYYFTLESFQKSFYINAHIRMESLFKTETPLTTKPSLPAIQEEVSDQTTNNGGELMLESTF
# T3 sequence (Q9NQ84 24-441): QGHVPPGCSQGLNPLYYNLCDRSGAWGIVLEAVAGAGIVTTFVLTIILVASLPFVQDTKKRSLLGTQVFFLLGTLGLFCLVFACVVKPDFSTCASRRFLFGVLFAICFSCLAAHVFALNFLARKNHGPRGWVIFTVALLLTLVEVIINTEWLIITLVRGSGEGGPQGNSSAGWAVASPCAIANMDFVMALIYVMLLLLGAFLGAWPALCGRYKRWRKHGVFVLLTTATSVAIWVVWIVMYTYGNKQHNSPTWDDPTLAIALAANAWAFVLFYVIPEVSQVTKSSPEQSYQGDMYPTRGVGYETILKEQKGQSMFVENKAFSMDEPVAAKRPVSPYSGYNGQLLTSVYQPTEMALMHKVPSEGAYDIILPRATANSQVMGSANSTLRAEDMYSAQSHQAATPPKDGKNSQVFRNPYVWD
Molecule,"activation of hGPR15 CHO cell line (human GPR15 [1]; hGPR15 CHO cell line, compared with EC50 of ~2 μM)",calcium/luminescence response of hGPR23 cells (human GPR23),activation of hGPR15 (cAMP HTRF assay) (human GPR15 [2]),IP-10 release [3],"activation of hGPR15 (human GPR15 [1]; CHO-Aeq cells, ligand from CHO production or IV preparation)",activation of hGPR15 in HEK-Aeq Gα16 cells (human GPR15 [1]; stably transfected HEK-Aeq Gα16 cells),forskolin-induced cAMP elevation (SW48 cells [4]),calcium signal on GPRC5C (human GPRC5C),intracellular calcium levels (SW48 cells [5]),activation of mouse GPR15 receptor (mouse GPR15),c10orf99 mRNA [6],reduction in the Psoriasis Area and Severity Index (PAST) [6] [%]
"CC(C)C[C@H](NC(=O)[C@H](CCC(N)=O)NC(=O)[C@@H]1CCCN1C(=O)[C@H](CCCCN)NC(=O)[C@@H](N)CCC(N)=O)C(=O)N[C@@H](Cc1c[nH]c2ccccc12)C(=O)N[C@H](C(=O)N[C@H](C(=O)N1CCC[C@H]1C(=O)NCC(=O)N[C@@H](C)C(=O)N[C@@H](CC(C)C)C(=O)N1CCC[C@H]1C(=O)N[C@@H](CCC(N)=O)C(=O)N[C@H](C(=O)O)C(C)C)C(C)C)C(C)C [QKPQLWVVPGALPQV peptide, QKPQLWVVPGALPQV] (H-QKPQLWVVPGALPQV-OH; N-terminus and C-terminus assumed)",same affinity,failed in responding,,,,,,,,,,
"KRRPAKAWSGRRTRLCCHRVPSPNSTNLKGHHVRLCKPCK LEPEPRLWVVPGALPQV (KRRPAKAWSGRRTRLCCHRVPSPNSTNLKGHHVRLCKPCKLEPEPRLWVVPGALPQV) [c10orf99, made by CHO production, in vitro translation or synthesis]",,failed to induce any calcium signal,activation,induces IP-10-release,specifically activated,confirmed,pertussis toxin sensitive decrease in forskolin-induced cAMP elevation,failed to induce any calcium signal,dose response dependent increase in intracellular calcium levels,Activation of mouse GPR15 receptor was observed,,
secukinumab: fully human monoclonal antibody that selectively binds to and neutralizes IL-17A,,,,,,,,,,,significant decrease,58
